Results taken from US20040152694A1, “Methods and compositions for treating inflammatory disorders of the airways” (priority 2003, published 2004).
Where two headings read alike, the source gives them in different places.

Columns and labels:
[1] = test system: isolated guinea pig trachea; assay: Endothelin-1-induced contraction of isolated guinea pig trachea in vitro; details: for Emax at 10 µM / Emax at 30 µM: Cavia porcellus, 25 min, read-out: Contraction %: percent of maximal response to 4.5 μM histamine
Experimental: In order to measure the effect of GYKI 52466 and 53773 (talampanel) on endothelin-1-induced contractions in isolated guinea pig trachea the following procedures were followed. The tracheae of male Dunkin-Hartley guinea pigs (350-450 g) were removed; helical strips were prepared and mounted in an organ bath. After equilibration, the strips were contracted with endothelin-1 and when contraction had reached the plateau, different concentrations of GYKI-52466, 53773 or the suitable vehicles were added into the chambers. Changes in tensions were expressed as the percentage of the maximal response to 4.5 μM histamine measured at the beginning of the experiment.

[2] = test system: Rat aortic smooth muscle cells (primary); assay: Growth factor-induced proliferation of smooth muscle cells, 3H-thymidine incorporation, RASMC; assay type: cell-based
Experimental: (§1) Primary and permanently cultured rat aortic smooth muscle cells were made senescent by serum deprivation (0.1% FCS, 48 hours). Proliferation was induced by re-addition of serum (10%) containing the necessary growth factors and the effect of different concentrations of the AMPA receptor modulators on the proliferation of the cells was determined by measuring ^3H-thymidine incorporation.

[3] = test system: airways epithelial cells of antigen sensitized BN rats; assay: Allergen-induced mucus production of airways epithelial cells, PAS staining; assay type: in vivo, rat; details: mean ± SEM
Experimental: Antigen sensitized BN rats were pretreated orally with 0.3, 3 and 30 mg/kg GYKI-52466 or GYKI-53773 (Talampanel) 2 hours prior to antigen challenge using a similar protocol that was described in Example 2. Lungs were isolated 48 hours subsequent to antigen exposure; samples were fixed in phosphate-buffered 8% formalin. Specimens were then routinely processed for histochemistry. In the periodic acid-Schiff stained (PAS) and haematoxylin-eosin counterstained, 5 μm thick sections, all epithelial cells of each airway segments were counted in the whole preparations at a magnification of 400×. The number of PAS(+) [mucus-producing] epithelial cells are expressed as the ratio of all epithelial cells.

[4] = test system: trachea of ovalbumin-sensitized and challenged BN-rats; assay: Tracheal contraction to acetylcholine ex vivo after antigen challenge, local (intratracheal) treatment with GYKI-53773; assay type: in vivo, rat
Experimental: (§2) Rats were actively sensitized to ovalbumin (OA) by a subcutaneous injection of 0.5 ml of OA/Al(OH3) gel mixture (2 mg OA+10 g Al(OH3)/100 ml saline) on day 1 with subsequent subcutaneous injections (10 mg OA+10 g Al(OH3)/100 ml saline) given on days 14 and 21. On day 28, animals received GYKI-52466, GYKI-47261 or GYKI-53773 compound orally (0.3 mg/kg or 3.0 mg/kg) 2 hours before antigen challenge. Antigen challenge was performed by inhalation of nebulised ovalbumin (1% antigen solution administered in a TSE inhalation system for 1 hour). Animals were sacrificed 48 hours post antigen challenge wherein the tracheas were removed to an organ bath. Dissected tracheas were allowed to equilibrate for 30 minutes before measuring tracheal spasmogenic response curves to acetylcholine (Ach).
The procedures of Example 2 were followed in order to compare the effects of antigen exposure and local (intratracheal) GYKI 53773 treatments on Ach-induced tracheal contractions in allergen sensitized and challenged rats.

[5] = test system: A7r5 established smooth muscle cell line (ATCC); assay: Growth factor-induced proliferation of smooth muscle cells, 3H-thymidine incorporation, A7r5; assay type: cell-based, rat
Experimental: as §1

[6] = test system: trachea of ovalbumin-sensitized and challenged BN-rats; assay: Tracheal contraction to acetylcholine ex vivo after antigen challenge, oral pretreatment; assay type: in vivo, rat; details: for MAX: Contraction at maximal Ach concentration relative to control / ED50: −log M acetylcholine (Ach) causing 50% contraction relative to control: 3.0 mg/kg orally 2 hours before antigen challenge, mean ± SEM; for MAX: Contraction at maximal Ach concentration relative to control: control = 100; for ED50: −log M acetylcholine (Ach) causing 50% contraction relative to control: trachea 48 h post challenge; for Tracheal hyper-reactivity to acetylcholine after ovalbumin challenge: dose of 3.0 mg/kg, oral
Experimental: as §2

AMPA receptors = assay: Ventilated, perfused rat lung: AMPA-induced lung injury
Experimental: The presence/function of AMPA receptors in the lung of experimental animals was investigated in the same model (ventilated perfused rat lung) that was applied for the examination of NMDA-receptors by Said et al., (Proc Natl. Acad. Sci. (USA) 93:4688 (1996). The lung of anesthetized SPRD rats were ventilated and were in situ perfused with a constant flow of Krebs solution. L-arginine, AMPA and AMPA-antagonist were added directly to the perfusate as described by Said et al, supra. As it is shown in Table 2, activation of the AMPA receptors triggered an acute edematous lung injury manifested by the significant increase in airway pressure (PAW) pulmonary artery pressure (PAP) and the ratio of wet and dry weight of the lung after the treatment.

[7] = test system: trachea of ovalbumin-sensitized and challenged BN-rats; assay: Tracheal contraction to acetylcholine ex vivo after antigen challenge, systemic (intraperitoneal) NBQX; assay type: in vivo, rat
Experimental: as §2
The procedures of Example 2 were followed in order to compare the effects of antigen exposure and systemic (intraperitoneal) NBQX treatments on Ach-induced tracheal contractions in allergen sensitized and challenged rats.

[8] = test system: trachea of ovalbumin-sensitized and challenged BN-rats; assay: Tracheal contraction to acetylcholine ex vivo after antigen challenge, local (intratracheal) NBQX; assay type: in vivo, rat; details: for ED50: −log M acetylcholine (Ach) causing 50% contraction relative to control / MAX: Contraction at maximal Ach concentration relative to control: local
[9] = 0.3 mg/kg orally 2 hours prior to antigen challenge, lungs 48 hours after
[10] = 3 mg/kg orally 2 hours prior to antigen challenge
[11] = 30 mg/kg orally 2 hours prior to antigen challenge
[12] = second dose column (dose number not given)
[13] = third dose column (dose number not given)
[14] = AMPA (200 μM) alone in perfusate, SPRD rats
[15] = third (highest) dose column (dose number not given)

Compound: CC(=O)N1N=C(c2ccc(N)cc2)c2cc3c(cc2CC1C)OCO3 (single isomer, unassigned; (-)) [GYKI-53773, (−)-1-(4-Aminophenyl)-3-acetyl-4-methyl-3,4-dihydro-7,8-methylenedioxy-5H-2,3-benzodiazepine]
- Contraction caused by ET-1 in the isolated guinea pig trachea [1]: dose-dependently inhibit the contraction
- Emax at 10 µM ([1]; 10 μM, 25 minutes after addition, vehicle 84 ± 8, Mean ± SD (n)): 43 ± 9%
- Emax at 30 µM ([1]; 30 μM, 25 minutes after addition, vehicle 66 ± 8, Mean ± SD (n)): 7 ± 4%
- Inhibition (% of control) RASMC ([2]; 0.03 μg/ml): 26 % of control
- Inhibition (% of control) RASMC ([2]; 0.3 μg/ml): 59 % of control
- Inhibition (% of control) RASMC ([2]; 3.0 μg/ml): 70 % of control
- % PAS(+) cells of total epithelial cells [3, 9]: 12.34 ± 1.39%
- % PAS(+) cells of total epithelial cells [3, 10]: 9.49 ± 1.08%
- % PAS(+) cells of total epithelial cells [3, 11]: 5.02 ± 0.75%
- Allergen-induced airways hyperresponsiveness ([4]; 1 μg/kg, single administration): strongly reduced the allergen-induced airways hyperresponsiveness
- ED50: −log M acetylcholine (Ach) causing 50% contraction relative to control ([4]; first dose column (dose number not given), challenged 7.22, control 5.89): 5.80 ± 0.47 −log M
- MAX: Contraction at maximal Ach concentration relative to control ([4]; first dose column (dose number not given), challenged 312, control 100): 202 ± 66
- ED50: −log M acetylcholine (Ach) causing 50% contraction relative to control [4, 12]: 5.73 ± 0.39 −log M
- MAX: Contraction at maximal Ach concentration relative to control [4, 12]: 113 ± 19
- ED50: −log M acetylcholine (Ach) causing 50% contraction relative to control [4, 13]: 5.68 ± 0.55 −log M
- MAX: Contraction at maximal Ach concentration relative to control [4, 13]: 129 ± 30
- Inhibition (% of control) A7r5 ([5]; 0.03 μg/ml): 21 % of control
- Inhibition (% of control) A7r5 ([5]; 0.3 μg/ml): 43 % of control
- Inhibition (% of control) A7r5 ([5]; 3.0 μg/ml): 87 % of control
- MAX: Contraction at maximal Ach concentration relative to control [6]: 85 ± 16
- ED50: −log M acetylcholine (Ach) causing 50% contraction relative to control [6]: 4.64 ± 0.34 −log M
- Tracheal hyper-reactivity to acetylcholine after ovalbumin challenge [6]: brought this elevation back to control level

Compound: CNC(=O)N1N=C(c2ccc(N)cc2)c2cc3c(cc2CC1C)OCO3 (single isomer, unassigned; (-)) [GYKI-53784, (−)-1-(4-Aminophenyl)-3-methylcarbamoyl-4-methyl-7,8-methylenedioxy-3,4-dihydro-5H-2,3-benzodiazepine]
- W/D: Ratio of wet and dry weight of lungs after 60-minute perfusion (AMPA receptors; AMPA (200 μM) + 53784 (200 μM), AMPA alone 14.8, control 6.6): 14.3 ± 5.6 (4)
- PAP: Pulmonary artery pressure after 60 minutes perfusion as a percent of 0 minute pressure (AMPA receptors; AMPA (200 μM) + 53784 (200 μM), AMPA alone 147.9, control 96.0): 114.0 ± 23.0 (4) percent
- PAW: Airway pressure after 60 minute perfusion as a percent of 0 minute pressure (AMPA receptors; AMPA (200 μM) + 53784 (200 μM), AMPA alone 183.4, control 99.3): 110.3 ± 19.1 (4) percent
- Effect on airway and pulmonary arterial pressures (AMPA receptors; AMPA-treated perfused rat lung): decreased both the airway and the pulmonary arterial pressures

Compound: Cc1onc(O)c1CC(N)C(=O)O (stereo not drawn) [AMPA, α-Amino-3-hydroxy-5-methyl-4-isoxazole propionate]
- PAP: Pulmonary artery pressure after 60 minutes perfusion as a percent of 0 minute pressure (AMPA receptors; [14]): 147.9 ± 8.6 (7) percent
- W/D: Ratio of wet and dry weight of lungs after 60-minute perfusion (AMPA receptors; [14]): 14.8 ± 3.9 (3)
- PAW: Airway pressure after 60 minute perfusion as a percent of 0 minute pressure (AMPA receptors; AMPA (200 μM) alone in perfusate, SPRD rats, n in brackets): 183.4 ± 15.6 (7) percent

Compound: Cc1cn2c(n1)Cc1ccc(Cl)cc1C(c1ccc(N)cc1)=N2 [GYKI-47261]
- MAX: Contraction at maximal Ach concentration relative to control [6]: 98 ± 13
- ED50: −log M acetylcholine (Ach) causing 50% contraction relative to control [6]: 5.26 ± 0.30 −log M
- Tracheal hyper-reactivity to acetylcholine after ovalbumin challenge [6]: brought this elevation back to control level

Compound: CC1=NN=C(c2ccc(N)cc2)c2cc3c(cc2C1)OCO3 [GYKI-52466, 1-(4-Aminophenyl)-4-methyl-7,8-methylenedioxy-5H-2,3-benzodiazepine]
- Contraction caused by ET-1 in the isolated guinea pig trachea [1]: dose-dependently inhibit the contraction
- Emax at 10 µM [1]: 53 ± 7%
- Emax at 30 µM [1]: 23 ± 9%
- % PAS(+) cells of total epithelial cells [3, 9]: 16.09 ± 1.82%
- % PAS(+) cells of total epithelial cells [3, 10]: 15.18 ± 1.68%
- % PAS(+) cells of total epithelial cells [3, 11]: 14.17 ± 1.59%
- MAX: Contraction at maximal Ach concentration relative to control [6]: 135 ± 32
- ED50: −log M acetylcholine (Ach) causing 50% contraction relative to control [6]: 5.60 ± 0.46 −log M
- Tracheal hyper-reactivity to acetylcholine after ovalbumin challenge [6]: brought this elevation back to control level

Compound: NS(=O)(=O)c1cccc2c1c([N+](=O)[O-])cc1[nH]c(=O)c(=O)[nH]c12 [NBQX, 2,3-Dihydroxy-6-nitro-7-sulphamoyi-benzo(f)quinoxaline]
- ED50: −log M acetylcholine (Ach) causing 50% contraction relative to control ([7]; 0.15 mg/kg intraperitoneal, challenged 7.31, control 6.16): 6.29 ± 0.51 −log M
- MAX: Contraction at maximal Ach concentration relative to control ([7]; 0.15 mg/kg intraperitoneal, challenged 308, control 100): 178 ± 65
- ED50: −log M acetylcholine (Ach) causing 50% contraction relative to control ([7]; 1.5 mg/kg intraperitoneal): 4.98 ± 0.80 −log M
- MAX: Contraction at maximal Ach concentration relative to control ([7]; 1.5 mg/kg intraperitoneal): 115 ± 30
- ED50: −log M acetylcholine (Ach) causing 50% contraction relative to control ([7]; 15 mg/kg intraperitoneal): 5.11 ± 0.55 −log M
- MAX: Contraction at maximal Ach concentration relative to control ([7]; 15 mg/kg intraperitoneal): 125 ± 32
- Allergen-induced airways hypersensitivity, ED50 and maximal provoked response ([7]; intraperitoneal, dose-dependent): strongly inhibits both parameters
- Allergen-induced airways hypersensitivity ([8]; local administration, statistically significant only at the highest applied dose): inhibits allergen-induced airways hypersensitivity in a dose-dependent manner
- ED50: −log M acetylcholine (Ach) causing 50% contraction relative to control ([8]; first dose column (dose number not given), challenged 6.70, control 5.68): 5.85 ± 0.59 −log M
- MAX: Contraction at maximal Ach concentration relative to control ([8]; first dose column (dose number not given), challenged 327, control 100): 308 ± 128
- ED50: −log M acetylcholine (Ach) causing 50% contraction relative to control [8, 12]: 5.20 ± 0.72 −log M
- MAX: Contraction at maximal Ach concentration relative to control [8, 12]: 108 ± 28
- ED50: −log M acetylcholine (Ach) causing 50% contraction relative to control [8, 15]: 3.44 ± 0.36 −log M
- MAX: Contraction at maximal Ach concentration relative to control [8, 15]: 60 ± 14
- Inhibition (% of control) RASMC ([2]; 0.03 μg/ml): 1 % of control
- Inhibition (% of control) RASMC ([2]; 0.3 μg/ml): 5 % of control
- Inhibition (% of control) RASMC ([2]; 3.0 μg/ml): 94 % of control
